Structures can show the parent of a compound that is named as a salt.
Columns and labels:
[1] = In vitro release, human plasma system (dialysis bag in PBS); format: in vitro ADME; conditions: 37 °C, within 4 hours
Experimental: (§1) Two in vitro release systems were used in this study, the first system was the plasma free environment and the second system was the human plasma environment. To set up the first in vitro release system, 1.0 mL of liposomal rivastigmine formulation prepared according to Example 1 and 1.0 mL of free rivastigmine tartrate were placed in separate dialysis bags (Spectra/Pro*6 dialysis membrane, MWCO 50 kDa, Spectrum Labs) and both ends of the dialysis bags were sealed. To set up the second in vitro release system, 1.0 mL of liposomal rivastigmine formulation prepared according to Example 1 and 1.0 mL of free rivastigmine tartrate were placed in separate dialysis bags, each containing 1 mL of human plasma (Valley Biomedical, Inc.) and both ends of the dialysis bags were sealed. Each dialysis bag was immersed in 25 mL PBS at pH 7.4 in a 50-mL centrifuge tube and incubated in a water bath at 37±1° C. for 24 hours. At designated time points after incubation (1, 2, 4, 6 and 24 hours), 0.5 mL aliquot from the 25-mL PBS was sampled and 0.5 mL of fresh PBS was added to replace the sampling aliquot. Drug concentrations of the sampling aliquots at each time point were analyzed using high performance liquid chromatography (HPLC) to create the in vitro release profile.

[2] = In vitro release, plasma free system (dialysis bag in PBS); format: physicochemical; conditions: PBS pH 7.4, 37 °C, within 2 hours
Experimental: as §1

[3] = PK study of liposomal rivastigmine in rats, subcutaneous injection; format: in vivo, Sprague-Dawley rats
Experimental: An in vivo PK evaluation of the liposomal rivastigmine formulation was performed using 7-8 weeks old female Sprague-Dawley rats. The rats were housed in a holding room which operated on a 12-hr light/12-hr dark circadian cycle with free access to water and food.
The rats were divided into two groups (n=3 in each group), one group received subcutaneous injection of 10 mg/kg of free rivastigmine tartrate, prepared by dissolving rivastigmine tartrate in ultrapure water with a final concentration of 2 mg/mL. The other group received subcutaneous injection of 10 mg/kg of liposomal rivastigmine tartrate, prepared according to Example 1. Blood samples were collected at 15 min, 1, 2, 4, 6, 8, 24, 48, and 72 hours post-injection. Plasma samples were obtained by centrifugation, kept frozen at −80° C. and analyzed using a noncompartmental analysis model in PKSolver (Comput Methods Programs Biomed. 2010; 99(3):306-314).

[4] = female, Sprague-Dawley, rat, plasma, sc, single subcutaneous injection 10 mg/kg

## CCN(C)C(=O)Oc1cccc([C@H](C)N(C)C)c1 [Free Rivastigmine, rivastigmine tartrate]
[1]
  rivastigmine released: 90%
[2]
  rivastigmine released through the dialysis bag: one hundred
[3]; 8 hours post injection, FIG. 2
  rivastigmine in plasma: undetectable
[3]; 72 hours post-injection
  rivastigmine released as indicated by AUC0-t: 100%
[3]; [4]
  AUC(0-inf): 899 ng·h/mL
  AUC(0-t): 896 ng·h/mL
  Cmax: 427 ng/mL
[3]; female, Sprague-Dawley, rat, plasma, sc, single subcutaneous injection 10 mg/kg, read-out: t½ (converted)
  half-life: 55.8 min
